Experimental findings from patent US20210379056A1, “SUBSTITUTED PYRAZOLE FUSED RING DERIVATIVE, PREPARATION METHOD THEREFOR, AND APPLICATION THEREOF” (Applied Pharmaceutical Science, Inc., priority 2018, published 2021) are described below.

For orientation: IC50 means the concentration at which inhibition is half-maximal.

Assay [1] deals with RET wild-type, mutant and/or fusion-type. In words: Overall statement on RET inhibitory activity (summary of Table 3). To be noted: statement in words summarising Table 3. An excerpt: As shown in the above table, the example compounds of the present disclosure have improved inhibitory activity against RET wild-type, mutant and/or fusion-type.
Another assay deals with T1, Ret wt (Homo sapiens, UniProt P07949).
T1 construct: purchased Invitrogen PV3082
In words: HTRF kinase activity test, RET wild type. To be noted: Table 3; read-out: RET Enzyme (wild type) IC50. The format is biochemical. Here is the method: This test combined peptide substrates and a single proprietary monoclonal antibody with HTRF technology, which was a highly sensitive and stable technology for detecting molecular interactions of proteins. The enzyme phosphorylates the substrate, then the Eu-labeled antibody binds to the phosphorylated substrate, and streptavidin-XL665 binds to all substrates. The TR-FRET signal was generated by the HTRF principle. […] Based on this, the inhibitory effect was evaluated.
(§1) The other compounds were diluted 3-fold gradiently with DMSO from the 10 mM stock solution to a total of 10 concentrations respectively.
(§2) Adding 4 volumes of distilled water to 1 volume of enzyme buffer 5×; 5 mM MgCl2; 1 mM DTT.
(§3) b) centrifuging the compound plate for 1 minute at 1000 g.
(§4) c) sealing the test board.
(§5) f) adding 4 μl of 1× kinase buffer to each well of the test plate, centrifuging the sample plate at 1000 g for 30 seconds, and placing it at room temperature for 10 minutes.
(§6) g) preparing a solution of 5× TK-substrate-biotin ([…]) in kinase buffer and 5×ATP (50 μM) in kinase buffer respectively.
(§7) h) starting the reaction by adding 2 μl STK-substrate-biotin and 2 μl ATP (prepared in the step g).
(§8) i) centrifuging the sample plate for 30 seconds at 1000 g. Sealing the test board and placing it at room temperature for 30 minutes.
(§9) ) centrifuging at 1000 g for 30 seconds and placing it at room temperature for 1 hour.
(§10) The inhibition rate % was calculated as follows:
(§11) Inhibition rate %=[1−(fluorescence signal value of test compound−fluorescence signal value of positive control)/(average ratio of negative control−average ratio of positive control)]*100%
(§12) Ratio: generated from the measured fluorescence signal value
(§13) The average ratio of the positive control is the average ratio of the positive control (200 nM AT13148) in the sample plate;
(§14) The average ratio of negative controls is the average ratio of negative controls (0.1% DMSO) in the sample plate.
(§15) GraphPad 6.0 was used to fit the logarithm of the % inhibition rate and the compound concentration into a nonlinear regression (dose response−variable slope) to calculate the IC50 value.
On the technique in general: In TR-FRET formats the signal depends on donor and acceptor labels being close together.

In a further assay the test system is TT Cell. In words: Cell inhibitory activity test (CCK8). The class given is cell-based. To be noted: Table 3, 72 hours incubation. Here is the method:
Cell Inhibitory Activity Test
1. preparing 90 μl of cell suspension in a 96-well plate with 4000 cells/well. Pre-incubating the culture plate in an incubator for 24 hours (37° C., 5% CO2).
2. adding 10 μl of test compounds of different concentrations to each well of cells, and each compound has multiple wells.
3. incubating the culture plate in the incubator for 72 hours.
4. adding 10 μl of CCK8 solution to each well (be careful not to generate bubbles in the well, otherwise they would affect the reading of the OD value).
5. incubating the culture plate in the incubator for 1-2 hours.
6. measuring the absorbance at 450 nm with a microplate reader.
7. according to the compound concentration and absorbance value, GraphpadPrism software was used to calculate the IC50 of each compound.

In another assay the target is T2, RET (V804M) (Homo sapiens, UniProt P07949, V804M).
T2 construct: purchased Signalchem R02-12GG
In words: HTRF kinase activity test, RET V804M. The format is biochemical. Particulars: Table 3; read-out: RET Enzyme (V804M) IC50. Here is the method:
This test combined peptide substrates and a single proprietary monoclonal antibody with HTRF technology, which was a highly sensitive and stable technology for detecting molecular interactions of proteins. The enzyme phosphorylates the substrate, then the Eu-labeled antibody binds to the phosphorylated substrate, and streptavidin-XL665 binds to all substrates. The TR-FRET signal was generated by the HTRF principle. Once the inhibitor (test compound) was added, a weaker TR-FRET signal is obtained. Based on this, the inhibitory effect was evaluated.
as §1, §2
a) Transferring 10 nl of the compound dilution (prepared in 5.2) to each well of the test plate (784075, Greiner);
as §3, §4
d) preparing 5×Ret wt (0.2 ng/μl) and 5×Ret V804L (0.5 ng/μl)/5×Ret V804M (0.5 ng/μl) in 1× kinase buffer respectively.
e) adding 2 μl of 5×Ret wt or 2 μl of Ret V804L/RET V804M to a 384-well test plate (784075, Greiner).
as §5, §6, §7, §8
j) preparing 4×Sa-XL 665 (250 nM) in HTRF detection buffer.
k) adding 5 μl of Sa-XL 665 and 5 μl of TK-antibody-Cryptate (prepared in the step i) to each well of the test plate.
as §9
m) reading the fluorescence signal values at 615 nm (Cryptate) and 665 nm (XL665) on the Envision 2104 plate reader.
Calculating the ratio of each hole (665 nm/615 nm).
as §10, §11, §12, §13, §14, §15

A value given as a limit tells only on which side of the number the result lay.

T1 sequence (P07949 29-1114): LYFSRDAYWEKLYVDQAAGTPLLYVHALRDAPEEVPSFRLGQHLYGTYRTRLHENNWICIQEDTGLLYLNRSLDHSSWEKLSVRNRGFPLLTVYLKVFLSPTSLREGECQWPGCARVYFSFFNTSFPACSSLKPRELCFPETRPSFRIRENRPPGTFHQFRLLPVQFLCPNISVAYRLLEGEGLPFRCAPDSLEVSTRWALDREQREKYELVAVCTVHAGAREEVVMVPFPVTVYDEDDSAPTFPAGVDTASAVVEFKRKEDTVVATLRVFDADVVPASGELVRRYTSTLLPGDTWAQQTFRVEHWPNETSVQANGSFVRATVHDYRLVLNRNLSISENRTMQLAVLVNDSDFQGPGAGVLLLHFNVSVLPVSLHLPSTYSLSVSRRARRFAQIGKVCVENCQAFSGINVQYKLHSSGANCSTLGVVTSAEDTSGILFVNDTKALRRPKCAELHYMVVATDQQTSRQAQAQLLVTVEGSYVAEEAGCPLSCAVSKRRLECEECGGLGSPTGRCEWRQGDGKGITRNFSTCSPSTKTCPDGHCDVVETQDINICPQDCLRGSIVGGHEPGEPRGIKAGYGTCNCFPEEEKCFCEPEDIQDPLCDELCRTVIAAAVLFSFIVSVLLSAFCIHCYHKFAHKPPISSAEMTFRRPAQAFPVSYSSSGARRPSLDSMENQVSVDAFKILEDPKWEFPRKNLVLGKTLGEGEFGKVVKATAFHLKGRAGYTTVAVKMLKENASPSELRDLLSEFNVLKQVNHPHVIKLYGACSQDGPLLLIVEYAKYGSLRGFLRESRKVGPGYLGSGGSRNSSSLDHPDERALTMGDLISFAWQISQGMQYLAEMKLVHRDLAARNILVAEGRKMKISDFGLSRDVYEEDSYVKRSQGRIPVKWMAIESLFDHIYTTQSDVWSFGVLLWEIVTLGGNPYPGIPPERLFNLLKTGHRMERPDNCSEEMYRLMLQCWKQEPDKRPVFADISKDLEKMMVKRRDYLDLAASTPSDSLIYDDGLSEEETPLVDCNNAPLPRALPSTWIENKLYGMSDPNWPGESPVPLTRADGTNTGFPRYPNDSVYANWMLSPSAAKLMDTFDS
T2 sequence (P07949 29-1114 V804M): as the sequence (P07949 29-1114) above, with V776M counted along it

Regarding “2-amino-4-(6-(4-((2-fluorobenzyl)piperazine-6-(1-methyl-1H-pyrazol-4-yl)pyrazolo[1,5-a]pyridine-3-carbonitrile [APS015]”, the “inhibitory activity against RET wild-type, mutant and/or fusion-type” value (“inhibitory activity” for short) in assay [1] is listed as “excellent activity”. Further, the IC50 is 0.0017 µM on Ret wt and 0.0277 µM in the assay on TT Cell.

As for `Cn1cc(-c2cc(-c3ccc(N4CCN(Cc5cncc(F)c5)CC4)nc3)c3c(C#N)c(N)nn3c2)cn1` [APS014], the “inhibitory activity” value in assay [1] is “excellent activity”. Further, the half-inhibitory concentration (IC50) came out at 0.001 µM on Ret wt and 0.0446 µM in the assay on TT Cell (Homo sapiens, TT).

In the case of `Cn1cc(-c2cc(-c3ccc(N4CCN(Cc5cccc(F)c5)CC4)nc3)c3c(C#N)c(N)nn3c2)cn1` [APS019], the “inhibitory activity” value in assay [1] is “excellent activity”. The IC50 on Ret wt is < 0.001 µM; in the assay on TT Cell (Homo sapiens, TT), 0.0078 µM.

On to `Cn1cc(-c2cc(-c3ccc(N4CCN(Cc5cc(F)ccc5F)CC4)nc3)c3c(C#N)c(N)nn3c2)cn1` [APS020], for which the “inhibitory activity” value in assay [1] is given as “excellent activity”. The concentration for half-maximal inhibition (IC50) at Ret wt was determined as 0.0011 µM; with TT Cell (Homo sapiens, TT) it was 0.0143 µM.

Take `Cc1cccnc1CN1CCN(c2ccc(-c3cc(-c4cnn(C)c4)cn4nc(N)c(C#N)c34)cn2)CC1` [APS022]: in assay [1], the “inhibitory activity” value is given as “excellent activity”. Besides, the half-maximal inhibitory concentration (IC50) on Ret wt is 0.0022 µM; with TT Cell (Homo sapiens, TT), 0.0455 µM.

Consider `Cn1cc(-c2cc(-c3ccc(N4CCN(Cc5c(F)cccc5F)CC4)nc3)c3c(C#N)c(N)nn3c2)cn1` [APS024, 2-amino-4-(6-(4-(2,6-difluorobenzyl)piperazin-1-yl)pyridin-3-yl)-6-(1-methyl-1H-pyrazole-4-yl)pyrazolo[1,5-a]pyridine-3-carbonitrile], for which the “inhibitory activity” value in assay [1] is “excellent activity”. The IC50 turned out to be 0.001 µM on Ret wt and 0.0071 µM in the assay with TT Cell (Homo sapiens, TT).

Turning to `Cc1ccnc(CN2CCN(c3ccc(-c4cc(-c5cnn(C)c5)cn5nc(N)c(C#N)c45)cn3)CC2)c1` [APS025], the “inhibitory activity” value in assay [1] is given as “excellent activity”. Besides, the IC50 stood at 0.0014 µM on Ret wt and 0.0382 µM in the assay on TT Cell (Homo sapiens, TT).

In the case of `COc1cccc(CN2CCN(c3ccc(-c4cc(-c5cnn(C)c5)cn5nc(N)c(C#N)c45)cn3)CC2)c1` [APS026, 2-amino-4-(6-(4-(3-methoxybenzyl)piperazin-1-yl)pyridin-3-yl)-6-(1-methyl-1H-pyrazole-4-yl)pyrazolo[1,5-a]pyridine-3-carbonitrile], the “inhibitory activity” value in assay [1] is “excellent activity”. For the same compound, the IC50 on Ret wt turned out to be 0.0014 µM; in the assay with TT Cell (Homo sapiens, TT) it was 0.0181 µM.

Regarding `Cn1cc(-c2cc(-c3ccc(N4CCN(Cc5ccccc5Cl)CC4)nc3)c3c(C#N)c(N)nn3c2)cn1` [APS027, 2-amino-4-(6-(4-(2-chlorobenzyl)piperazin-1-yl)pyridin-3-yl)-6-(1-methyl-1H-pyrazol-4-yl) pyrazolo[1,5-a]pyridine-3-carbonitrile], in assay [1], the “inhibitory activity” value is listed as “excellent activity”. In addition, the IC50 at Ret wt came to 0.0024 µM; in the assay on TT Cell (Homo sapiens, TT), 0.0857 µM.

In the case of `Cn1cc(-c2cc(-c3ccc(N4CCN(Cc5ccccn5)CC4)nc3)c3c(C#N)c(N)nn3c2)cn1` [APS035, 2-amino-6-(1-methyl-1H-pyrazol-4-yl)-4-(6-(4-(4-(pyridin-2-yl)methyl)piperazin-1-yl)pyridin-3-yl)pyrazolo[1,5-a]pyridine-3-carbonitrile], in assay [1], the “inhibitory activity” value is on record as “excellent activity”. Further, the IC50 worked out at 0.0017 µM on Ret wt and 0.0654 µM in the assay on TT Cell (Homo sapiens, TT).

For `Cn1cc(-c2cc(-c3ccc(N4CC5CC(C4)N5Cc4ccccn4)nc3)c3c(C#N)c(N)nn3c2)cn1` [APS038, 2-amino-6-(1-methyl-1H-pyrazol-4-yl)-4-(6-(6-(pyridin-2-yl-methyl)-3,6-diazabicyclo[3.1.1]heptan-3-yl)pyridin-3-yl)pyrazolo[1,5-a]pyridine-3-carbonitrile], in assay [1], the “inhibitory activity” value is “excellent activity”. The IC50 amounted to 0.001 µM on Ret wt and 0.0377 µM with TT Cell (Homo sapiens, TT).

Consider `COc1ccc(CN2CCN(c3ccc(-c4cc(-c5cnn(C)c5)cn5nc(N)c(C#N)c45)cn3)CC2)cn1` [APS068, 2-amino-4-(6-(4-((6-methoxypyridin-3-yl)methyl)piperazin-1-yl)pyridin-3-yl)-6-(1-methyl-1H-pyrazol-4-yl)pyrazolo[1,5-a]pyridine-3-carbonitrile], for which the “inhibitory activity” value in assay [1] was “excellent activity”. Moreover, the IC50 in the assay with TT Cell (Homo sapiens, TT) turned out to be 0.0113 µM.

Take `COc1ccc(CN2C3CC2CN(c2ccc(-c4cc(OCC(C)(C)O)cn5nc(OC)c(C#N)c45)cn2)C3)cn1` [APS091, 6-(2-hydroxy-2-methylpropoxy)-2-methoxy-4-(6-(6-((6-methoxypyridin-3-yl)methyl)-3,6-diazabicyclo[3.1.1]heptan-3-yl)pyridin-3-yl)pyrazolo[1,5-a]pyridine-3-carbonitrile]: on RET (V804M), the IC50 amounted to 0.957 µM.

Consider `COc1ccc(CN2C3CC2CN(c2ccc(-c4cc(OCC(C)(C)O)cn5nc(NC(C)=O)c(C#N)c45)cn2)C3)cn1` [APS093], for which the IC50 at Ret wt turned out to be 2.89 µM; on RET (V804M), 1.55 µM.

As for `CCOc1cc(-c2ccc(N3CCN(Cc4ccc(OC)nc4)CC3)nc2)c2c(C#N)c(N)nn2c1` [APS099], the “inhibitory activity” value in assay [1] is “excellent activity”. In the assay on TT Cell (Homo sapiens, TT), this compound returned a half-inhibitory concentration (IC50) of 0.0162 µM.

Consider `COCCOc1cc(-c2ccc(N3CCN(Cc4ccc(OC)nc4)CC3)nc2)c2c(C#N)c(N)nn2c1` [APS100, 2-amino-6-(2-methoxyethoxy)-4-(6-(4-((6-methoxypyridin-3-yl)methyl)piperazin-1-yl)pyridine-3-yl)pyrazolo[1,5-a]pyridine-3-carbonitrile], for which the “inhibitory activity” value in assay [1] is “excellent activity”. The compound further returned an IC50 in the assay with TT Cell (Homo sapiens, TT) of 0.0224 µM.

Regarding `CCOc1cc(-c2ccc(N3CC4CC(C3)N4Cc3cncc(F)c3)nc2)c2c(C#N)c(N)nn2c1` [APS111, 2-amino-6-ethoxy-4-(6-(6-((5-fluoropyridin-3-yl)methyl)-3,6-diazabicyclo[3.1.1]heptane-3-yl)pyridin-3-yl)pyrazolo[1,5-a]pyridine-3-carbonitrile], the “inhibitory activity” value in assay [1] was “excellent activity”. This compound also gave an IC50 in the assay with TT Cell (Homo sapiens, TT) of 0.0064 µM.

With `COc1ccc(CN2C3CC2CN(c2ccc(-c4cc(OCCOC(C)C)cn5nc(N)c(C#N)c45)cn2)C3)cn1` [APS120, 2-amino-6-(2-isopropoxyethoxy)-4-(6-(6-((6-methoxypyridin-3-yl)methyl)-3,6-diazabicyclo [3.1.1]heptan-3-yl)pyridin-3-yl)pyrazolo[1,5-a]pyridine-3-carbonitrile], the “inhibitory activity” value in assay [1] was “excellent activity”. Moreover, the IC50 in the assay on TT Cell (Homo sapiens, TT) amounted to 0.0169 µM.
